Measured values reported in the OligoGym collection.
Oligonucleotides are written 5' to 3', each unit as a sugar letter and its base; * is a phosphorothioate linkage, no mark a phosphodiester; rarer units and linkages stand in square brackets, end groups in braces. Plain capitals give the bases only. Oligonucleotides are given in HELM: sugar(base)linkage, 5' to 3'; d 2'-deoxyribose, r ribose, m 2'-O-methylribose, p phosphate. ss, as = sense and antisense strand; d = 2'-deoxy (DNA); r = 2'-OH (RNA)

biological target: UBE2D3; assay: reporter assay of Huesken 2005; details: siRNA
Also: test concentration or dose not given here.

Substance	normalised inhibition (eCFP-eYFP dual reporter) [%]
RNA1{r(U)p.r(U)p.r(C)p.r(A)p.r(A)p.r(A)p.r(C)p.r(C)p.r(A)p.r(C)p.r(C)p.r(U)p.r(A)p.r(A)p.r(G)p.r(G)p.r(U)p.r(U)p.r(G)p.d(T)p.d(T)}|RNA2{r(C)p.r(A)p.r(A)p.r(C)p.r(C)p.r(U)p.r(U)p.r(A)p.r(G)p.r(G)p.r(U)p.r(G)p.r(G)p.r(U)p.r(U)p.r(U)p.r(G)p.r(A)p.r(A)p.d(G)p.d(G)}$$$RNA1{StrandType:ss}|RNA2{StrandType:as}$	64.4
RNA1{r(U)p.r(C)p.r(C)p.r(A)p.r(U)p.r(U)p.r(U)p.r(G)p.r(U)p.r(U)p.r(C)p.r(A)p.r(C)p.r(U)p.r(G)p.r(C)p.r(U)p.r(A)p.r(U)p.d(T)p.d(T)}|RNA2{r(A)p.r(U)p.r(A)p.r(G)p.r(C)p.r(A)p.r(G)p.r(U)p.r(G)p.r(A)p.r(A)p.r(C)p.r(A)p.r(A)p.r(A)p.r(U)p.r(G)p.r(G)p.r(A)p.d(T)p.d(A)}$$$RNA1{StrandType:ss}|RNA2{StrandType:as}$	98.4
RNA1{r(A)p.r(A)p.r(G)p.r(C)p.r(C)p.r(A)p.r(C)p.r(A)p.r(A)p.r(U)p.r(U)p.r(A)p.r(U)p.r(G)p.r(G)p.r(G)p.r(A)p.r(C)p.r(C)p.d(T)p.d(T)}|RNA2{r(G)p.r(G)p.r(U)p.r(C)p.r(C)p.r(C)p.r(A)p.r(U)p.r(A)p.r(A)p.r(U)p.r(U)p.r(G)p.r(U)p.r(G)p.r(G)p.r(C)p.r(U)p.r(U)p.d(G)p.d(C)}$$$RNA1{StrandType:ss}|RNA2{StrandType:as}$	52

biological target: UBE2W; assay: reporter assay of Huesken 2005; details: siRNA

Substance	normalised inhibition (eCFP-eYFP dual reporter) [%]
sense rUrArCrCrUrUrArUrArUrGrArArGrGrGrGrArAdTdT / antisense rUrUrCrCrCrCrUrUrCrArUrArUrArArGrGrUrAdCdC	111
sense rGrArGrArArGrArGrUrGrUrUrCrArArArArUrUdTdT / antisense rArArUrUrUrUrGrArArCrArCrUrCrUrUrCrUrCdAdT	116
sense rArGrUrCrGrArUrArUrCrCrUrUrUrUrGrArCrUdTdT / antisense rArGrUrCrArArArArGrGrArUrArUrCrGrArCrUdAdC	81.4
sense rArUrGrArCrCrUrUrArArArUrGrArGrArArGrAdTdT / antisense rUrCrUrUrCrUrCrArUrUrUrArArGrGrUrCrArUdTdC	68.9
sense rUrGrCrUrUrUrCrCrArGrCrUrGrCrArArGrGrAdTdT / antisense rUrCrCrUrUrGrCrArGrCrUrGrGrArArArGrCrAdTdG	110
sense rCrArUrUrArUrUrArGrCrArUrGrCrUrUrUrCrCdTdT / antisense rGrGrArArArGrCrArUrGrCrUrArArUrArArUrGdCdT	93.2
sense rUrArUrCrCrArUrUrCrUrArArCrArGrArArGrAdTdT / antisense rUrCrUrUrCrUrGrUrUrArGrArArUrGrGrArUrAdAdA	83.9
sense rGrCrGrCrUrCrUrCrArGrUrCrCrArArUrCrArGdTdT / antisense rCrUrGrArUrUrGrGrArCrUrGrArGrArGrCrGrCdTdG	109
sense rUrUrArCrArCrArGrUrGrGrArUrUrGrUrArGrAdTdT / antisense rUrCrUrArCrArArUrCrCrArCrUrGrUrGrUrArAdTdT	92.6
sense rUrCrCrUrGrUrUrCrArUrCrCrUrCrArUrGrUrUdTdT / antisense rArArCrArUrGrArGrGrArUrGrArArCrArGrGrAdAdT	108
sense rCrUrArUrUrUrArArArUrUrUrArGrUrArGrUrCdTdT / antisense rGrArCrUrArCrUrArArArUrUrUrArArArUrArGdAdA	83.5
sense rCrCrArArArGrArArArArCrArArArArUrGrGrUdTdT / antisense rArCrCrArUrUrUrUrGrUrUrUrUrCrUrUrUrGrGdAdT	101
sense rUrGrGrArArUrGrArCrCrUrUrArArArUrGrArGdTdT / antisense rCrUrCrArUrUrUrArArGrGrUrCrArUrUrCrCrAdGdG	96.4
sense rArArGrArGrUrGrUrUrCrArArArArUrUrCrArAdTdT / antisense rUrUrGrArArUrUrUrUrGrArArCrArCrUrCrUrUdCdT	114
sense rArArUrCrArGrUrUrUrGrUrCrUrUrArGrCrArUdTdT / antisense rArUrGrCrUrArArGrArCrArArArCrUrGrArUrUdGdG	104
sense rArUrCrCrUrCrArUrGrUrUrUrArUrArGrCrArAdTdT / antisense rUrUrGrCrUrArUrArArArCrArUrGrArGrGrArUdGdA	104
sense rUrCrArUrCrCrUrCrArUrGrUrUrUrArUrArGrCdTdT / antisense rGrCrUrArUrArArArCrArUrGrArGrGrArUrGrAdAdC	78.8
sense rArArCrUrUrCrUrArUrUrUrArArArUrUrUrArGdTdT / antisense rCrUrArArArUrUrUrArArArUrArGrArArGrUrUdGdA	96.1
sense rGrUrUrCrArArArArUrUrCrArArUrUrArCrArCdTdT / antisense rGrUrGrUrArArUrUrGrArArUrUrUrUrGrArArCdAdC	73.6
sense rGrUrUrCrArUrCrCrUrCrArUrGrUrUrUrArUrAdTdT / antisense rUrArUrArArArCrArUrGrArGrGrArUrGrArArCdAdG	105
sense rArArUrUrArCrArCrArGrUrGrGrArUrUrGrUrAdTdT / antisense rUrArCrArArUrCrCrArCrUrGrUrGrUrArArUrUdGdA	112
sense rGrGrUrCrArUrGrUrUrUrArCrUrGrGrUrGrArAdTdT / antisense rUrUrCrArCrCrArGrUrArArArCrArUrGrArCrCdTdG	103

Substance	normalised inhibition (eCFP-eYFP dual reporter) [%]
sense rUrUrUrArArArUrUrUrArGrUrArGrUrCrGrArUdTdT / antisense rArUrCrGrArCrUrArCrUrArArArUrUrUrArArAdTdA	88
sense rArArArArUrArUrUrCrCrUrGrUrUrCrArUrCrCdTdT / antisense rGrGrArUrGrArArCrArGrGrArArUrArUrUrUrUdCdA	53.5
sense rArGrCrArUrUrArUrUrArGrCrArUrGrCrUrUrUdTdT / antisense rArArArGrCrArUrGrCrUrArArUrArArUrGrCrUdAdA	84.8
sense rGrArArGrArCrUrGrGrUrCrCrCrCrArGrCrGrCdTdT / antisense rGrCrGrCrUrGrGrGrGrArCrCrArGrUrCrUrUrCdTdG	80.5
sense rArCrCrArCrCrGrGrArUrArArUrUrCrUrUrUrUdTdT / antisense rArArArArGrArArUrUrArUrCrCrGrGrUrGrGrUdCdG	96.7
sense rUrCrCrArUrUrCrUrArArCrArGrArArGrArCrUdTdT / antisense rArGrUrCrUrUrCrUrGrUrUrArGrArArUrGrGrAdTdA	64.1
sense rArGrArArUrCrCrArArArGrArArArArCrArArAdTdT / antisense rUrUrUrGrUrUrUrUrCrUrUrUrGrGrArUrUrCrUdTdG	106
sense rUrUrCrCrUrGrUrUrCrArUrCrCrUrCrArUrGrUdTdT / antisense rArCrArUrGrArGrGrArUrGrArArCrArGrGrArAdTdA	73
sense rArArUrUrUrCrArArCrUrUrCrUrArUrUrUrArAdTdT / antisense rUrUrArArArUrArGrArArGrUrUrGrArArArUrUdTdT	97.5
sense rArGrUrArGrUrCrGrArUrArUrCrCrUrUrUrUrGdTdT / antisense rCrArArArArGrGrArUrArUrCrGrArCrUrArCrUdAdA	124
sense rUrCrCrArArUrCrArGrUrUrUrGrUrCrUrUrArGdTdT / antisense rCrUrArArGrArCrArArArCrUrGrArUrUrGrGrAdCdT	85
sense rCrGrArUrArUrCrCrUrUrUrUrGrArCrUrCrUrCdTdT / antisense rGrArGrArGrUrCrArArArArGrGrArUrArUrCrGdAdC	85.7
sense rUrArUrUrCrCrUrGrUrUrCrArUrCrCrUrCrArUdTdT / antisense rArUrGrArGrGrArUrGrArArCrArGrGrArArUrAdTdT	104
sense rArCrArCrArGrUrGrGrArUrUrGrUrArGrArCrAdTdT / antisense rUrGrUrCrUrArCrArArUrCrCrArCrUrGrUrGrUdAdA	99.3
sense rUrArCrUrGrGrUrGrArArArArUrArUrUrCrCrUdTdT / antisense rArGrGrArArUrArUrUrUrUrCrArCrCrArGrUrAdAdA	94.4
sense rArUrGrUrGrCrGrArArCrArUrGrUrArArCrArAdTdT / antisense rUrUrGrUrUrArCrArUrGrUrUrCrGrCrArCrArUdAdA	88.7
sense rUrGrGrUrGrArArArArUrArUrUrCrCrUrGrUrUdTdT / antisense rArArCrArGrGrArArUrArUrUrUrUrCrArCrCrAdGdT	115
sense rUrUrUrArCrUrGrGrUrGrArArArArUrArUrUrCdTdT / antisense rGrArArUrArUrUrUrUrCrArCrCrArGrUrArArAdCdA	91.2
sense rArUrGrUrUrUrArUrArGrCrArArUrGrGrUrCrAdTdT / antisense rUrGrArCrCrArUrUrGrCrUrArUrArArArCrArUdGdA	96.2
sense rCrArGrUrCrCrArArUrCrArGrUrUrUrGrUrCrUdTdT / antisense rArGrArCrArArArCrUrGrArUrUrGrGrArCrUrGdAdG	122
sense rCrUrGrGrUrGrArArArArUrArUrUrCrCrUrGrUdTdT / antisense rArCrArGrGrArArUrArUrUrUrUrCrArCrCrArGdTdA	108
